# Measured values taken from ChEMBL document CHEMBL1150213, “Protein-tyrosine kinase inhibition: mechanism-based discovery of antitumor agents” (J Nat Prod, 1992).
# How the values were obtained:
# [1] = target: T1, Proto-oncogene tyrosine-protein kinase Src (Homo sapiens, UniProt P12931)
# Description: Inhibition of p60c-src expressed in chick embryo fibroblast
# [2] = target: T1, Proto-oncogene tyrosine-protein kinase Src; test: Inhibition of p60 src
# CCRF-CEM = test: Cytotoxicity against human CCRF-CEM cells; assay type: functional, cell-based
# HL-60(TB) = test: Cytotoxicity against human HL-60(TB) cells; assay type: functional, cell-based
# MOLT-4 = test: Cytotoxicity against human MOLT4 cells; assay type: functional, cell-based
# RPMI-8226 = test: Cytotoxicity against human RPMI8226 cells; assay type: functional, cell-based
# SR = test: Cytotoxicity against human SR cells; assay type: functional, cell-based
# A549 = test: Cytotoxicity against human A549 cells; assay type: functional
# HOP-18 = test: Cytotoxicity against human HOP18 cells; assay type: functional
# HOP-62 = test: Cytotoxicity against human HOP62 cells; assay type: functional
# HOP-92 = test: Cytotoxicity against human HOP92 cells; assay type: functional
# NCI-H226 = test: Cytotoxicity against human NCI-H226 cells; assay type: functional
# NCI-H322M = test: Cytotoxicity against human NCI-H322M cells; assay type: functional
# NCI-H460 = test: Cytotoxicity against human NCI-H460 cells; assay type: functional
# NCI-H522 = test: Cytotoxicity against human NCI-H522 cells; assay type: functional
# [3] = Cytotoxicity against human LXFL 529L cells; assay type: functional
# DMS-114 = test: Cytotoxicity against human DMS114 cells; assay type: functional
# DMS-273 = test: Cytotoxicity against human DMS273 cells; assay type: functional
# COLO 205 = test: Cytotoxicity against human COLO205 cells; assay type: functional
# DLD-1 = test: Cytotoxicity against human DLD1 cells; assay type: functional
# HCC 2998 = test: Cytotoxicity against human HCC2998 cells; assay type: functional
# HCT-116 = test: Cytotoxicity against human HCT116 cells; assay type: functional
# HCT-15 = test: Cytotoxicity against human HCT15 cells; assay type: functional
# HT-29 = test: Cytotoxicity against human HT-29 cells; assay type: functional
# KM12 = test: Cytotoxicity against human KM12 cells; assay type: functional
# KM-20L2 = test: Cytotoxicity against human KM20L2 cells; assay type: functional
# SW-620 = test: Cytotoxicity against human SW620 cells; assay type: functional
# SF-268 = test: Cytotoxicity against human SF268 cells; assay type: functional
# SF-295 = test: Cytotoxicity against human SF295 cells; assay type: functional
# SNB-19 = test: Cytotoxicity against human SNB19 cells; assay type: functional
# SNB-75 = test: Cytotoxicity against human SNB75 cells; assay type: functional
# U-251 = test: Cytotoxicity against human U251 cells; assay type: functional
# XF498 = test: Cytotoxicity against human XF498 cells; assay type: functional
# LOX IMVI = test: Cytotoxicity against human LOXIMVI cells; assay type: functional
# Malme-3M = test: Cytotoxicity against human MALME-3M cells; assay type: functional
# M14 = test: Cytotoxicity against human M14 cells; assay type: functional
# SK-MEL-2 = test: Cytotoxicity against human SK-MEL-2 cells; assay type: functional
# SK-MEL-28 = test: Cytotoxicity against human SK-MEL-28 cells; assay type: functional
# SK-MEL-5 = test: Cytotoxicity against human SK-MEL-5 cells; assay type: functional
# UACC-257 = test: Cytotoxicity against human UACC257 cells; assay type: functional
# OVCAR-4 = test: Cytotoxicity against human OVCAR4 cells; assay type: functional
# OVCAR-5 = test: Cytotoxicity against human OVCAR5 cells; assay type: functional
# SK-OV-3 = test: Cytotoxicity against human SKOV3 cells; assay type: functional
# [4] = Cytotoxicity against human 786-O cells; assay type: functional
# A498 = test: Cytotoxicity against human A498 cells; assay type: functional
# ACHN = test: Cytotoxicity against human ACHN cells; assay type: functional
# CAKI-1 = test: Cytotoxicity against human Caki1 cells; assay type: functional
# RXF 393 = test: Cytotoxicity against human RXF393 cells; assay type: functional
# [5] = Cytotoxicity against human RXF631 cells; assay type: functional
# SN12C = test: Cytotoxicity against human SN12C cells; assay type: functional
# TK-10 = test: Cytotoxicity against human TK10 cells; assay type: functional
# SNB-78 = test: Cytotoxicity against human SNB78 cells; assay type: functional
# [6] = target: Tyrosine-protein kinase Lck (Homo sapiens, UniProt P06239)
# NCI-H23 = test: cells; details: Homo sapiens
# Description: Cytotoxicity against human NCI-H23 cells
# [7] = Cytotoxicity against Rous sarcoma virus-infected rat kidney cells; assay type: functional
# L1210 [8] = test: Cytotoxicity against mouse L1210 cells; assay type: functional
# L1210 [9] = test: Iv vivo cytotoxicity against mouse L1210 cells relative to control in presence of foroxymithine; assay type: functional
# A-431 = test: Cytotoxicity against human A431 cells; assay type: functional
# [10] = target: Epidermal growth factor receptor (Homo sapiens, UniProt P00533)
# [11] = read-out: Log10GI50 (converted)
# [12] = read-out: Log10LC50 (converted)
# T1 sequence (P12931 2-536 limits assumed): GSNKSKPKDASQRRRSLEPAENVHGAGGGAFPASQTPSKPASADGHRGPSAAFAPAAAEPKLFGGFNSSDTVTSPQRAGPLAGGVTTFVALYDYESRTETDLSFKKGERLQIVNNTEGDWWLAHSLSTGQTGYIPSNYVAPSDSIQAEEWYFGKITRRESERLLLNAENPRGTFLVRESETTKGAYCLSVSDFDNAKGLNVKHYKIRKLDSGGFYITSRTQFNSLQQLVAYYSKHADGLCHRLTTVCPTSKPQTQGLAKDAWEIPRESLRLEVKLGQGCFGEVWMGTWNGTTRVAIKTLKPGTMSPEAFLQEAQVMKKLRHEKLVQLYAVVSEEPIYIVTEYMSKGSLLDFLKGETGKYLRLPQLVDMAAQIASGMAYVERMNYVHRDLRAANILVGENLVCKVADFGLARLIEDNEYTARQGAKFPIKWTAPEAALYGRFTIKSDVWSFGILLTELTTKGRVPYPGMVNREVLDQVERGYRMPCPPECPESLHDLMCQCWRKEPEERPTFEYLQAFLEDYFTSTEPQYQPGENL
# Sequence of Tyrosine-protein kinase Lck (P06239 whole entry): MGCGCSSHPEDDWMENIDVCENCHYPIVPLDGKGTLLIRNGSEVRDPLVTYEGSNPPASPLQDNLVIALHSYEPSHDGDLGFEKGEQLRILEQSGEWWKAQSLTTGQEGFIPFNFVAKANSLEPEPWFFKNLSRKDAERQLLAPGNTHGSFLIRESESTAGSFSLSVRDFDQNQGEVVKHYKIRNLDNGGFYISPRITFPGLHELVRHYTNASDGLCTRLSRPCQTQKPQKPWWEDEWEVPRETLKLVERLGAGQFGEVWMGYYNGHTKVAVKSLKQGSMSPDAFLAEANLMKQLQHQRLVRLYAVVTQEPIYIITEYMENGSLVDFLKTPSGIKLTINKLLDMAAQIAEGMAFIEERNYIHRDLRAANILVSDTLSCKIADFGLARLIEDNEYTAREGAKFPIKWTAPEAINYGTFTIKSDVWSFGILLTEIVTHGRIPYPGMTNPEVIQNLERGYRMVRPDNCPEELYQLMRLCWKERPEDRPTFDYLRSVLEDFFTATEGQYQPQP
# Sequence of Epidermal growth factor receptor (P00533 whole entry): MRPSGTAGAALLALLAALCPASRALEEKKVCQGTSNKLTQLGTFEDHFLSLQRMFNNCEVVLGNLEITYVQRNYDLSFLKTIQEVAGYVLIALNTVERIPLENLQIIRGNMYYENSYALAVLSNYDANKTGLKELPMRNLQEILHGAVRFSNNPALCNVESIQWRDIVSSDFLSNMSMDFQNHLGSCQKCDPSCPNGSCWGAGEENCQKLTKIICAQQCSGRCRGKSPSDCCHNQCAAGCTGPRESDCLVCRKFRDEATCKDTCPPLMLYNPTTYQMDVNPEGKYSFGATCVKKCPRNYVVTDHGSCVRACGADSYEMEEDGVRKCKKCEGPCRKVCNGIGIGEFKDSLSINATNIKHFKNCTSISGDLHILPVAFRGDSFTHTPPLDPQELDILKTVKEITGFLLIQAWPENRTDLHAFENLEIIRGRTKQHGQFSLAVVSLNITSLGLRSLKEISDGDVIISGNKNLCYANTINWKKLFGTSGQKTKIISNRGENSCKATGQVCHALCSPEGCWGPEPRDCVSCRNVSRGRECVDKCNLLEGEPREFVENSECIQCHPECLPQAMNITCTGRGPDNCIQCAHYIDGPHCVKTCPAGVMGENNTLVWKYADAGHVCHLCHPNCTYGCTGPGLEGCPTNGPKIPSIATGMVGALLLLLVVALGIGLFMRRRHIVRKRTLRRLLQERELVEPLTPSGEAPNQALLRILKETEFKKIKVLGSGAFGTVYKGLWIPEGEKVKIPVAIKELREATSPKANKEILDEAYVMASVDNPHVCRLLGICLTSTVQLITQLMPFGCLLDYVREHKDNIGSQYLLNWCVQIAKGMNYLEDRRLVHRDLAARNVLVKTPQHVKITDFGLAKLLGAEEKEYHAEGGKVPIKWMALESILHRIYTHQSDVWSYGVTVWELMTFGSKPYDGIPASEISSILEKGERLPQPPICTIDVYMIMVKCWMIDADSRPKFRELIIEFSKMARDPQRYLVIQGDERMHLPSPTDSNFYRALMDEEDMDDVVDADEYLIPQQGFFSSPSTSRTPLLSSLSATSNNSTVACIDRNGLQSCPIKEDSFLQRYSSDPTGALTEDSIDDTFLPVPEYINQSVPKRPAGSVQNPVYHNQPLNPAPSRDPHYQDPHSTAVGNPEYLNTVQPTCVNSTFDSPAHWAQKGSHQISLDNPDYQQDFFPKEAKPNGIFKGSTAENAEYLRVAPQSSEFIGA
compound,measurement,setting,value
Nc1ncnc2c1ncn2[C@@H]1O[C@H](COP(=O)(O)OP(=O)(O)OP(=O)(O)OP(=O)(O)OC[C@H]2O[C@@H](n3cnc4c(N)ncnc43)[C@H](O)[C@@H]2O)[C@@H](O)[C@H]1O [DIADENOSINE TETRAPHOSPHATE],IC50,[1],46 µM
CC(C)[C@H](NC(=O)[C@H](CCCN=C(N)N)NC(=O)[C@@H](N)CC(=O)O)C(=O)N[C@@H](Cc1ccc(O)cc1)C(=O)N[C@H](C(=O)N[C@@H](Cc1cnc[nH]1)C(=O)N1CCC[C@H]1C(=O)N[C@@H](Cc1ccccc1)C(=O)O)C(C)C [[Val5] - ANGIOTENSIN II],Ki,[2],700 µM
Cc1cc(O)c2c(c1)C(=O)c1cc(O)cc(O)c1C2=O [EMODIN],GI50,CCRF-CEM; [11],38 µM
same,CC50,CCRF-CEM; [12],> 100 µM
same,GI50,HL-60(TB); [11],26.9 µM
same,CC50,HL-60(TB); [12],> 100 µM
same,GI50,MOLT-4; [11],32.4 µM
same,CC50,MOLT-4; [12],> 100 µM
same,GI50,RPMI-8226; [11],24.5 µM
same,CC50,RPMI-8226; [12],> 100 µM
same,GI50,SR; [11],23.4 µM
same,CC50,SR; [12],> 100 µM
same,GI50,A549; [11],26.9 µM
same,CC50,A549; [12],> 100 µM
same,GI50,HOP-18; [11],3.98 µM
same,CC50,HOP-18; [12],> 100 µM
same,GI50,HOP-62; [11],8.13 µM
same,CC50,HOP-62; [12],> 100 µM
same,GI50,HOP-92; [11],11.5 µM
same,CC50,HOP-92; [12],> 100 µM
same,GI50,NCI-H226; [11],33.1 µM
same,CC50,NCI-H226; [12],> 100 µM
same,GI50,NCI-H322M; [11],35.5 µM
same,CC50,NCI-H322M; [12],> 100 µM
same,GI50,NCI-H460; [11],20 µM
same,CC50,NCI-H460; [12],> 100 µM
same,GI50,NCI-H522; [11],14.5 µM
same,CC50,NCI-H522; [12],> 100 µM
same,GI50,[3]; [11],24.5 µM
same,CC50,[3]; [12],> 100 µM
same,GI50,DMS-114; [11],40.7 µM
same,CC50,DMS-114; [12],> 100 µM
same,GI50,DMS-273; [11],20 µM
same,CC50,DMS-273; [12],> 100 µM
same,GI50,COLO 205; [11],17.8 µM
same,CC50,COLO 205; [12],100 µM
same,GI50,DLD-1; [11],23.4 µM
same,CC50,DLD-1; [12],> 100 µM
same,GI50,HCC 2998; [11],32.4 µM
same,CC50,HCC 2998; [12],> 100 µM
same,GI50,HCT-116; [11],36.3 µM
same,CC50,HCT-116; [12],> 100 µM
same,GI50,HCT-15; [11],26.9 µM
same,CC50,HCT-15; [12],> 100 µM
same,GI50,HT-29; [11],31.6 µM
same,CC50,HT-29; [12],> 100 µM
same,GI50,KM12; [11],26.3 µM
same,CC50,KM12; [12],> 100 µM
same,GI50,KM-20L2; [11],40.7 µM
same,CC50,KM-20L2; [12],> 100 µM
same,GI50,SW-620; [11],23.4 µM
same,CC50,SW-620; [12],> 100 µM
same,GI50,SF-268; [11],25.7 µM
same,CC50,SF-268; [12],> 100 µM
same,GI50,SF-295; [11],28.2 µM
same,CC50,SF-295; [12],> 100 µM
same,GI50,SNB-19; [11],30.2 µM
same,CC50,SNB-19; [12],> 100 µM
same,GI50,SNB-75; [11],25.7 µM
same,CC50,SNB-75; [12],> 100 µM
same,GI50,U-251; [11],27.5 µM
same,CC50,U-251; [12],> 100 µM
same,GI50,XF498; [11],26.3 µM
same,CC50,XF498; [12],> 100 µM
same,GI50,LOX IMVI; [11],17 µM
same,CC50,LOX IMVI; [12],> 100 µM
same,GI50,Malme-3M; [11],11.7 µM
same,CC50,Malme-3M; [12],> 100 µM
same,GI50,M14; [11],25.1 µM
same,CC50,M14; [12],> 100 µM
same,GI50,SK-MEL-2; [11],20.4 µM
same,CC50,SK-MEL-2; [12],> 100 µM
same,GI50,SK-MEL-28; [11],36.3 µM
same,CC50,SK-MEL-28; [12],> 100 µM
same,GI50,SK-MEL-5; [11],2630 nM
same,CC50,SK-MEL-5; [12],51.3 µM
same,GI50,UACC-257; [11],28.2 µM
same,CC50,UACC-257; [12],> 100 µM
same,GI50,OVCAR-4; [11],30.2 µM
same,CC50,OVCAR-4; [12],> 100 µM
same,GI50,OVCAR-5; [11],38 µM
same,CC50,OVCAR-5; [12],> 100 µM
same,GI50,SK-OV-3; [11],23.4 µM
same,CC50,SK-OV-3; [12],> 100 µM
same,GI50,"[4]; 786-0, read-out: Log10GI50 (converted)",17.4 µM
same,CC50,"[4]; 786-0, read-out: Log10LC50 (converted)",> 100 µM
same,GI50,A498; [11],16.6 µM
same,CC50,A498; [12],> 100 µM
same,GI50,ACHN; [11],19.1 µM
same,CC50,ACHN; [12],> 100 µM
same,GI50,CAKI-1; [11],45.7 µM
same,CC50,CAKI-1; [12],> 100 µM
same,GI50,RXF 393; [11],38.9 µM
same,CC50,RXF 393; [12],> 100 µM
same,GI50,"[5]; RXF 631, read-out: Log10GI50 (converted)",22.4 µM
same,CC50,"[5]; RXF 631, read-out: Log10LC50 (converted)",> 100 µM
same,GI50,SN12C; [11],67.6 µM
same,CC50,SN12C; [12],> 100 µM
same,GI50,TK-10; [11],23.4 µM
same,CC50,TK-10; [12],97.7 µM
same,GI50,SNB-78; [11],49 µM
same,CC50,SNB-78; [12],100 µM
same,IC50,[6],18.5 µM
same,GI50,"NCI-H23; NCI-H23, read-out: Log10GI50 (converted)",14.5 µM
same,CC50,"NCI-H23; NCI-H23, read-out: Log10LC50 (converted)",> 100 µM
Nc1nc2c(ncn2[C@@H]2O[C@H](COP(=O)(O)OP(=O)(O)OP(=O)(O)OP(=O)(O)OC[C@H]3O[C@@H](n4cnc5c(=O)[nH]c(N)nc54)[C@H](O)[C@@H]3O)[C@@H](O)[C@H]2O)c(=O)[nH]1,IC50,[1],> 100 µM
O=CN/C=C/c1cc(O)ccc1O [ERBSTATIN],GI50,[7],3 µg/mL
same,GI50,L1210 [8],3 µg/mL
same,T/C,L1210 [9],155%
same,GI50,A-431,3 µg/mL
same,IC50,[10],3.07 µM
